Read-outs that look alike come from different tables or passages of the source.
Experiments:
Format in all cases: cell-based
Candida albicans = test: in vitro antimicrobial spectrum, agar plate dilution MIC; conditions: strain CA 300, Mueller-Hinton agar, 18 hours, 35° C., read-out: minimal inhibitory concentration (MIC)
Method: (§1) The in vitro antimicrobial spectrum of LL-D42067α was determined by the agar plate dilution method with Mueller-Hinton agar and an inoculum of each test organism of approximately 10^4 colony forming units delivered by the Steers replicating device. The minimal inhibitory concentration (MIC) in mcg/ml was defined as the lowest concentration of LL-D42067α that inhibited visible growth after 18 hours incubation at 35° C.

[1] = tested on: Acinetobacter calcoaceticus; test: as above; conditions: strain Stfd-79-17, Mueller-Hinton agar, 18 hours, 35° C., read-out: minimal inhibitory concentration (MIC)
Method: as §1

Streptococcus faecalis = test: as above; conditions: Enterococcus faecalis, ATCC29212; strain ATCC 29212; Mueller-Hinton agar, 18 hours, 35° C.; read-out: minimal inhibitory concentration (MIC)
Method: as §1

Streptococcus mutans = test: as above; conditions: 18 hours, 35° C., read-out: minimal inhibitory concentration (MIC)
Method: as §1

Streptococcus sanguis = test: as above; conditions: strain G9B (a), Mueller-Hinton agar, 18 hours, 35° C., read-out: minimal inhibitory concentration (MIC)
Method: as §1

Staphylococcus aureus = test: as above; conditions: Mueller-Hinton agar, 18 hours, 35° C.; for MIC: Staphylococcus aureus, read-out: minimal inhibitory concentration (MIC)
Method: as §1

Klebsiella pneumoniae = test: as above; conditions: strain AD, Mueller-Hinton agar, 18 hours, 35° C., read-out: minimal inhibitory concentration (MIC)
Method: as §1

[2] = tested on: Streptococcus (enterococcus sp); test: as above; conditions: Mueller-Hinton agar, 18 hours, 35° C.
Method: as §1

[3] = tested on: Staphylococcus epidermidis; test: as above; conditions: 18 hours, 35° C., read-out: minimal inhibitory concentration (MIC)
Method: as §1

Bacillus subtilis = test: as above; conditions: ATCC6633, strain ATCC 6633, Mueller-Hinton agar, 18 hours, 35° C., read-out: minimal inhibitory concentration (MIC)
Method: as §1

Escherichia coli = test: as above; conditions: 18 hours, 35° C., read-out: minimal inhibitory concentration (MIC)
Method: as §1

Proteus morganii = test: as above; conditions: Morganella morganii; strain K-79-25; Mueller-Hinton agar, 18 hours, 35° C.; read-out: minimal inhibitory concentration (MIC)
Method: as §1

Bacillus cereus = test: as above; conditions: strain LL #4, Mueller-Hinton agar, 18 hours, 35° C., read-out: minimal inhibitory concentration (MIC)
Method: as §1

Saccharomyces cerevisiae = test: as above; conditions: strain Y 15, Mueller-Hinton agar, 18 hours, 35° C., read-out: minimal inhibitory concentration (MIC)
Method: as §1

Micrococcus luteus = test: as above; conditions: strain PC 1001, Mueller-Hinton agar, 18 hours, 35° C., read-out: minimal inhibitory concentration (MIC)
Method: as §1

gram-positive bacteria = test: in vitro antimicrobial spectrum, summary in words; conditions: summary of Table VI
Method: as §1

yeasts = test: in vitro antimicrobial spectrum, summary in words; conditions: summary of Table VI
Method: as §1

COc1c2c(c(O)c3c(=O)c4c(oc13)C(O)CCC4O)-c1c3c(c4cc(C)n(C)c(=O)c4c1O)OCOC3C2 (stereo not drawn) [LL-D42067α]
256 µg/mL: MIC (Candida albicans)
512 µg/mL: MIC [1] | MIC (Klebsiella pneumoniae) | MIC (Escherichia coli; ATCC25922, strain ATCC 25922, Mueller-Hinton agar) | MIC (Escherichia coli; strain #311, Mueller-Hinton agar) | MIC (Proteus morganii)
active: antimicrobial activity versus gram-positive bacteria (gram-positive bacteria)
32 µg/mL: MIC (Saccharomyces cerevisiae)
≤ 0.06 µg/mL: MIC (Streptococcus faecalis) | MIC (Streptococcus mutans; ATCC27352, strain ATCC 27352, Mueller-Hinton agar) | MIC (Streptococcus mutans; strain BHI (b), Mueller-Hinton agar) | MIC (Streptococcus sanguis) | MIC (Staphylococcus aureus; ATCC25923, strain ATCC 25923) | MIC (Staphylococcus aureus; strain Smith) | minimal inhibitory concentration (MIC) (Staphylococcus aureus; strain LL #14) | minimal inhibitory concentration (MIC) (Staphylococcus aureus; strain LL #27) | minimal inhibitory concentration (MIC) (Staphylococcus aureus; strain LL #45) | MIC ([2]; Streptococcus, strain OSU-75-1, read-out: minimal inhibitory concentration (MIC)) | minimal inhibitory concentration (MIC) ([2]; strain SM-77-15) | MIC ([3]; ATCC12228, strain ATCC 12228, Mueller-Hinton agar) | MIC ([3]; strain CMC-83-56, Mueller-Hinton agar) | MIC (Bacillus subtilis) | MIC (Bacillus cereus) | MIC (Micrococcus luteus)
moderately active: antimicrobial activity against yeasts (yeasts)

Source: patent publication US4774184A, “Culture and process for producing antibiotic LL-D42067alpha” (American Cyanamid Company, priority 1985, dated 1988)
